Results reported in patent US20240390340A1 (INCYTE CORPORATION, priority 2023, published 2024).
Read-outs that look alike come from different tables or passages of the source.

Legend:
[1] = target: KRAS G12D (Homo sapiens, UniProt P01116, G12D); assay: GDP-GTP exchange assay (bodipy-GDP/GppNHp, SOS1), KRAS G12D; type: biochemical
[2] = target: KRAS G12V (Homo sapiens, UniProt P01116, G12V); assay: GDP-GTP exchange assay (bodipy-GDP/GppNHp, SOS1), KRAS G12V; type: biochemical
[3] = system: Caco-2 cells; assay: Caco2 assay (Papp A-B); type: in vitro ADME; conditions: test compound 50 μM, 120 min, 37° C.
Protocol: Caco-2 cells are grown at 37° C. in an atmosphere of 5% CO2 in DMEM growth medium supplemented with 10% (v/v) fetal bovine serum, 1% (v/v) nonessential amino acids, penicillin (100 U/mL), and streptomycin (100 μg/mL). Confluent cell monolayers are subcultured every 7 days or 4 days for Caco-2 by treatment with 0.05% trypsin containing […]. Caco-2 cells are seeded in 96-well Transwell plates. The seeding density for Caco-2 cells is 14,000 cells/well. DMEM growth medium is replaced every other day after seeding. Cell monolayers are used for transport assays between 22 and 25 days for Caco-2 cells.
Cell culture medium is removed and replaced with HBSS. To measure the TEER, the HBSS is added into the donor compartment (apical side) and receiver compartment (basolateral side). The TEER is measured by using a REMS Autosampler to ensure the integrity of the cell monolayers. Caco-2 cell monolayers with TEER values 300 Ω·cm^2 are used for transport experiments. To determine the Papp in the absorptive direction (A-B), solution of test compound (50 μM) in HBSS is added to the donor compartment (apical side), while HBSS solution with 4% BSA is added to the receiver compartment (basolateral side). The apical volume was 0.075 mL, and the basolateral volume is 0.25 mL. The incubation period is 120 min. at 37° C. in an atmosphere of 5% CO2. At the end of the incubation period, samples from the donor and receiver sides are removed and an equal volume of MeCN is added for protein precipitation. The supernatants are collected after centrifugation (3000 rpm, Allegra X-14R Centrifuge from Beckman Coulter, Indianapolis, IN) for LCMS analysis. The permeability value is determined according to the equation:
[formula] • where the flux rate (F, mass/time) is calculated from the slope of cumulative amounts of compound of interest on the receiver side, SA is the surface area of the cell membrane, VD is the donor volume, and MD is the initial amount of the solution in the donor chamber.
The symbol “+” indicates a Caco-2 value of ≤0.5, “++” indicates a Caco-2 value of >0.5 but ≤1; and “+++” indicates a Caco-2 value of >1. “NA” indicates IC50 not available.

[4] = Table H, column G12D, for compounds isolated as several atropisomers/diastereoisomers the value for the most potent isomer is quoted, read-out: KRAS G12D exchange assay IC50
[5] = Table H, column G12V, for compounds isolated as several atropisomers/diastereoisomers the value for the most potent isomer is quoted, read-out: KRAS G12V exchange assay IC50
[6] = bodipy-loaded KRAS G12D 2.5 nM, 4 h pre-incubation, value for the most potent isomer quoted for certain compounds, read-out: G12D (KRAS G12D exchange assay IC50)
[7] = KRAS G12V mutant, value for the most potent isomer quoted for certain compounds, read-out: G12V (KRAS G12V exchange assay IC50)

KRAS G12D, sequence (P01116 1-188 isoform P01116-2 G12D): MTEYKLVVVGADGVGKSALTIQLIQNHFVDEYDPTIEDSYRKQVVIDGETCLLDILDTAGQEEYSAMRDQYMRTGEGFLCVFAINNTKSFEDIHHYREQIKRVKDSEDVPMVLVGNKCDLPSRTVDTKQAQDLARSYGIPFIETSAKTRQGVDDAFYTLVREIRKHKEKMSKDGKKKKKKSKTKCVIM
KRAS G12V, sequence (P01116 1-188 isoform P01116-2 G12V): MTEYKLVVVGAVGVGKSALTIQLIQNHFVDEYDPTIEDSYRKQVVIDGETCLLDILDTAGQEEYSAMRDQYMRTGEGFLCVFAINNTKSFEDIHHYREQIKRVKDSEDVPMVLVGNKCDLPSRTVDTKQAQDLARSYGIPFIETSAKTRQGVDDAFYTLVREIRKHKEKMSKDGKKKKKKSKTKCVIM

| Compound | IC50 [1, 4] | IC50 [2, 5] | Caco-2 [3] | IC50 [1, 6] | IC50 [2, 7] |
| --- | --- | --- | --- | --- | --- |
| Cc1nc2c(F)c(-c3cccc(Cl)c3Cl)c(CCC#N)cc2c2c1cc([C@H]1C[C@H](n3cc(C4(C(F)F)CC4)nn3)CN1C(=O)C1CC1)n2[C@H]1[C@H]2CN[C@@H]1C2 [Example 67, 3-(1-((1R,4R,5S)-2-Azabicyclo[2.1.1]hexan-5-yl)-2-((2R,4S)-1-(cyclopropanecarbonyl)-4-(4-(1-(difluoromethyl)cyclopropyl)-1H-1,2,3-triazol-1-yl)pyrrolidin-2-yl)-7-(2,3-dichlorophenyl)-6-fluoro-4-methyl-1H-pyrrolo[3,2-c]quinolin-8-yl)propanenitrile] | ≤ 100 nM | ≤ 100 nM | + (a Caco-2 value of ≤0.5) |  |  |
| Cc1nc2c(F)c(-c3cccc(Cl)c3Cl)c(CCC#N)cc2c2c1cc([C@H]1C[C@H](n3nccn3)CN1C(=O)C1CC1)n2[C@H]1[C@H]2CN[C@@H]1C2 [Example 74, 3-(1-((1R,4R,5S)-2-Azabicyclo[2.1.1]hexan-5-yl)-2-((2R,4S)-1-(cyclopropanecarbonyl)-4-(2H-1,2,3-triazol-2-yl)pyrrolidin-2-yl)-7-(2,3-dichlorophenyl)-6-fluoro-4-methyl-1H-pyrrolo[3,2-c]quinolin-8-yl)propanenitrile] | ≤ 100 nM | ≤ 100 nM | ++ (a Caco-2 value of >0.5 but ≤1) |  |  |
| Cc1nc2c(F)c(-c3cccc(Cl)c3Cl)c(CCC#N)cc2c2c1cc([C@H]1C[C@H](n3cc(C#N)cn3)CN1C(=O)C1CC1)n2[C@H]1[C@H]2CN[C@@H]1C2 [Example 281] |  |  |  | ≤ 100 nM | ≤ 100 nM |
| Cc1nc2c(F)c(-c3cccc(Cl)c3Cl)c(CCC#N)cc2c2c1cc([C@H]1C[C@H](n3cc(Cn4ccccc4=O)nn3)CN1C(=O)C1CC1)n2[C@H]1[C@H]2CN[C@@H]1C2 [Example 324] |  |  |  | ≤ 100 nM | ≤ 100 nM |
| Cc1nc2c(F)c(-c3cccc(Cl)c3Cl)c(CCC#N)cc2c2c1cc([C@H]1C[C@H](Oc3cncc4c3OCCC4)CN1C(=O)C1CC1)n2[C@H]1[C@H]2CN[C@@H]1C2 [Example 289] |  |  |  | ≤ 100 nM | ≤ 100 nM |
| Cc1nc2c(F)c(-c3cccc(Cl)c3Cl)c(CCC#N)cc2c2c1cc([C@H]1C[C@H](Oc3cc(C(F)(F)F)[nH]n3)CN1C(=O)C1CC1)n2[C@H]1[C@H]2CN[C@@H]1C2 [Example 409] |  |  |  | ≤ 100 nM | ≤ 100 nM |
| Cc1nc2c(F)c(-c3cccc(Cl)c3Cl)c(CCC#N)cc2c2c1cc([C@H]1C[C@H](n3cc(C(F)(F)F)nn3)CN1C(=O)C1CC1)n2[C@H]1[C@H]2CN[C@@H]1C2 [Example 414] |  |  |  | ≤ 100 nM | ≤ 100 nM |
| Cc1nc2c(F)c(-c3cccc(Cl)c3Cl)c(CCC#N)cc2c2c1cc([C@H]1C[C@H](n3cc(C4CCOC4)nn3)CN1C(=O)C1CC1)n2[C@H]1C2CNC1C2 (some centres unmarked) [Example 181] |  |  |  | ≤ 100 nM | ≤ 100 nM |
| CNC(=O)c1ccc(-c2nc3c(F)c(-c4cccc(Cl)c4Cl)c(CCC#N)cc3c3c2cc([C@H]2C[C@H](OCc4c(F)cccc4F)CN2C(=O)C2CC2)n3[C@H]2[C@H]3CN[C@@H]2C3)cn1 [Example 220] |  |  |  | ≤ 100 nM | ≤ 100 nM |
| Cc1nc2c(F)c(-c3cccc(Cl)c3Cl)c(CCC#N)cc2c2c1cc([C@H]1C[C@H](OC(C)c3nccs3)CN1C(=O)C1CC1)n2[C@H]1[C@H]2CN[C@@H]1C2 (some centres unmarked) [Example 363] |  |  |  | ≤ 100 nM | ≤ 100 nM |
| CC(=O)NC(C)(C)c1cn([C@H]2C[C@H](c3cc4c(C)nc5c(F)c(-c6cccc(Cl)c6Cl)c(CCC#N)cc5c4n3[C@H]3[C@H]4CN[C@@H]3C4)N(C(=O)C3CC3)C2)nn1 [Example 272] |  |  |  | ≤ 100 nM | ≤ 100 nM |
| COc1cnn([C@H]2C[C@H](c3cc4c(C)nc5c(F)c(-c6cccc(Cl)c6Cl)c(CCC#N)cc5c4n3[C@H]3[C@H]4CN[C@@H]3C4)N(C(=O)C3CC3)C2)c1 [Example 352] |  |  |  | ≤ 100 nM | ≤ 100 nM |

Continued, values first:

| IC50 [1, 4] | IC50 [2, 5] | Caco-2 [3] | IC50 [1, 6] | IC50 [2, 7] | Compound |
| --- | --- | --- | --- | --- | --- |
| ≤ 100 nM | ≤ 100 nM | + (a Caco-2 value of ≤0.5) |  |  | Cc1nc2c(F)c(-c3cccc(Cl)c3Cl)c(CCC#N)cc2c2c1cc([C@H]1C[C@H](OCc3nccs3)CN1C(=O)C1CC1)n2[C@H]1[C@H]2CN[C@@H]1C2 [Example 9] |
|  |  |  | ≤ 100 nM | ≤ 100 nM | Cc1nc2c(F)c(-c3cccc(Cl)c3Cl)c(CCC#N)cc2c2c1cc([C@H]1C[C@H](OCc3c(F)cccc3C#N)CN1C(=O)C1CC1)n2[C@H]1[C@H]2CN[C@@H]1C2 [Example 126] |
|  |  |  | ≤ 100 nM | ≤ 100 nM | Cc1nc2c(F)c(-c3cccc(Cl)c3Cl)c(CCC#N)cc2c2c1cc([C@H]1C[C@H](OCc3ccc(C#N)cc3)CN1C(=O)C1CC1)n2[C@H]1[C@H]2CN[C@@H]1C2 [Example 152] |
|  |  |  | ≤ 100 nM | ≤ 100 nM | Cc1nc2c(F)c(-c3cccc(Cl)c3Cl)c(CCC#N)cc2c2c1cc([C@H]1C[C@H](c3ccccc3)CN1C(=O)C1CC1)n2[C@H]1[C@H]2CN[C@@H]1C2 [Example 109] |
|  |  |  | ≤ 100 nM | ≤ 100 nM | Cc1ccc(CO[C@H]2C[C@H](c3cc4c(C)nc5c(F)c(-c6cccc(Cl)c6Cl)c(CCC#N)cc5c4n3[C@H]3[C@H]4CN[C@@H]3C4)N(C(=O)C3CC3)C2)cc1 [Example 92] |
|  |  |  | ≤ 100 nM | ≤ 100 nM | Cc1nc2c(F)c(-c3cccc(Cl)c3Cl)c(CCC#N)cc2c2c1cc([C@H]1C[C@H](Oc3ccc4ccccc4n3)CN1C(=O)C1CC1)n2[C@H]1[C@H]2CN[C@@H]1C2 [Example 121] |
|  |  |  | ≤ 100 nM | ≤ 100 nM | Cc1nc2c(F)c(-c3cccc(Cl)c3Cl)c(CCC#N)cc2c2c1cc([C@H]1C[C@H](OC(=O)c3ccccc3)CN1C(=O)C1CC1)n2[C@H]1[C@H]2CN[C@@H]1C2 [Example 87] |
|  |  |  | ≤ 100 nM | ≤ 100 nM | Cc1nc2c(F)c(-c3cccc(Cl)c3Cl)c(CCC#N)cc2c2c1cc([C@H]1C[C@H](OCc3ccc(Cl)cc3F)CN1C(=O)C1CC1)n2[C@H]1[C@H]2CN[C@@H]1C2 [Example 155] |
|  |  |  | ≤ 100 nM | ≤ 100 nM | Cc1nc2c(F)c(-c3cccc(Cl)c3Cl)c(CCC#N)cc2c2c1cc([C@H]1C[C@H](Oc3ccccc3OC(F)F)CN1C(=O)C1CC1)n2[C@H]1[C@H]2CN[C@@H]1C2 [Example 248] |
|  |  |  | ≤ 100 nM | ≤ 100 nM | Cc1nc2c(F)c(-c3cccc(Cl)c3Cl)c(CCC#N)cc2c2c1cc([C@H]1C[C@H](OCc3cccc(F)c3C#N)CN1C(=O)C1CC1)n2[C@H]1[C@H]2CN[C@@H]1C2 [Example 156] |
|  |  |  | ≤ 100 nM | ≤ 100 nM | Cc1nc2c(F)c(-c3cccc(Cl)c3Cl)c(CCC#N)cc2c2c1cc([C@H]1C[C@H](OCc3c(Cl)cccc3Cl)CN1C(=O)C1CC1)n2[C@H]1[C@H]2CN[C@@H]1C2 [Example 116] |
|  |  |  | 100 to 1000 nM | ≤ 100 nM | Cc1nc2c(F)c(-c3cccc(Cl)c3Cl)c(CCC#N)cc2c2c1cc([C@H]1C[C@H](OCc3c(F)cccc3F)CN1C(=O)c1ccccc1)n2[C@H]1[C@H]2CN[C@@H]1C2 [Example 195] |
|  |  |  | ≤ 100 nM | ≤ 100 nM | Cc1ccnc(O[C@H]2C[C@H](c3cc4c(C)nc5c(F)c(-c6cccc(Cl)c6Cl)c(CCC#N)cc5c4n3[C@H]3[C@H]4CN[C@@H]3C4)N(C(=O)C3CC3)C2)c1 [Example 422] |
|  |  |  | ≤ 100 nM | ≤ 100 nM | COc1ncc(Cl)cc1O[C@H]1C[C@H](c2cc3c(C)nc4c(F)c(-c5cccc(Cl)c5Cl)c(CCC#N)cc4c3n2[C@H]2[C@H]3CN[C@@H]2C3)N(C(=O)C2CC2)C1 [Example 448] |
|  |  |  | ≤ 100 nM | ≤ 100 nM | Cc1nc2c(F)c(-c3cccc(Cl)c3Cl)c(CCC#N)cc2c2c1cc([C@H]1C[C@H](OCc3cccc(C(=O)N(C)C)c3)CN1C(=O)C1CC1)n2[C@H]1[C@H]2CN[C@@H]1C2 [Example 187] |
|  |  |  | ≤ 100 nM | ≤ 100 nM | COc1cc(O[C@H]2C[C@H](c3cc4c(C)nc5c(F)c(-c6cccc(Cl)c6Cl)c(CCC#N)cc5c4n3[C@H]3[C@H]4CN[C@@H]3C4)N(C(=O)C3CC3)C2)ccn1 [Example 304] |
